Experimental data: ChEMBL document CHEMBL5500376, “Novel pyxinol amide derivatives bearing an aliphatic heterocycle as P-glycoprotein modulators for overcoming multidrug resistance” (Eur J Med Chem, 2024); call rule not given here
“And” between values parts separate entries of the source, which are not always exact repeats. Identical values can stand only once.

Tests used:
[1] = Reversal of multi-drug resistance in human KVB cells assessed as increase in PTX-induced cytotoxicity by measuring cell survival at 10 uM measured after 72 hrs incubation in presence of 100 nM paclitaxel by MTT assay relative to control; format: functional, KBV
[2] = Reversal of multi-drug resistance in human KVB cells assessed as increase in PTX-induced cytotoxicity by measuring cell survival at 5 uM measured after 72 hrs incubation in presence of 100 nM paclitaxel by MTT assay relative to control; format: functional, KBV
[3] = Reversal fold, ratio of PTX IC50 to PTX IC50 in presence of test compound for reversal of multi-drug resistance in human KVB cells at 10 uM measured after 72 hrs by MTT assay; format: functional, KBV
[4] = Cytotoxicity against human KBV cells assessed as cell survival at 10 uM measured after 72 hrs incubation by MTT assay relative to control; format: functional; settings: read-out: Activity
[5] = molecular target: ATP-dependent translocase ABCB1 (Homo sapiens, UniProt P08183); assay: Substrate activity at Pgp in human KVB cells assessed as intracellular accumulation measured after 4 hrs by LC-MS/MS analysis; format: cell-based; settings: kbv
ATP-dependent translocase ABCB1, sequence (P08183 whole entry): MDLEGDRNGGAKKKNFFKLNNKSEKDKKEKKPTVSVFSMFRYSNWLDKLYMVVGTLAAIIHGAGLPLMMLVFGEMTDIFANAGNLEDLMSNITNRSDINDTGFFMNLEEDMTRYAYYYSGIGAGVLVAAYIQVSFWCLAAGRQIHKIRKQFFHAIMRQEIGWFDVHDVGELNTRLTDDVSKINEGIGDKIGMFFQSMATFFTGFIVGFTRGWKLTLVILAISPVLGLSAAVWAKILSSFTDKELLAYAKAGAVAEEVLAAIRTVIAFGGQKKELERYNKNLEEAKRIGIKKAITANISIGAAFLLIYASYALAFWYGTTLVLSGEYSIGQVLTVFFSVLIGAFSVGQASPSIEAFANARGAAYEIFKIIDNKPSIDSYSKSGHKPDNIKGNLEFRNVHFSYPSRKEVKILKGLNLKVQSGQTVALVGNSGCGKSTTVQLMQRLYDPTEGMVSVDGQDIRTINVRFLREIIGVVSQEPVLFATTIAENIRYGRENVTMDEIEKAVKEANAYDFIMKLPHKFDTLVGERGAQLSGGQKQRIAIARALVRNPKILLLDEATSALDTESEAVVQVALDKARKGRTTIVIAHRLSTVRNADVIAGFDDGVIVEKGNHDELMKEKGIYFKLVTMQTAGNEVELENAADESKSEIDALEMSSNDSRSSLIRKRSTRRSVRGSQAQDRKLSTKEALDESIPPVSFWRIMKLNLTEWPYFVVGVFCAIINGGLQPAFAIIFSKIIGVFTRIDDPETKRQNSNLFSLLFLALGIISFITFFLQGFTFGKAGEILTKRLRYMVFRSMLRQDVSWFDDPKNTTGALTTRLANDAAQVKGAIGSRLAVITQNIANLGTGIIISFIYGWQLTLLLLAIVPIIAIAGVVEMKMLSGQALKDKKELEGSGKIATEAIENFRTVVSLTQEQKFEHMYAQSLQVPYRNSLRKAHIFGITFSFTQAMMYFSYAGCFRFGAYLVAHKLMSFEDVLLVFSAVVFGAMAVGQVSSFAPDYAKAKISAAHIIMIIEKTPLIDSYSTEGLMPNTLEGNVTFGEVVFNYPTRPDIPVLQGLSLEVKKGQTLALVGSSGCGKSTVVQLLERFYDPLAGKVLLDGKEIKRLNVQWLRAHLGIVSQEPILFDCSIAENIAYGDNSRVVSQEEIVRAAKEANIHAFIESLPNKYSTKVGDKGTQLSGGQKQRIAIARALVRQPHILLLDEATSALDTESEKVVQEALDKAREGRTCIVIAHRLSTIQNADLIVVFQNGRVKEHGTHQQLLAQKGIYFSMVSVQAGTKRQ

SMILES	Activity [1]	Activity [2]	Ratio [3]	viability at 10 µM [4]	Activity [5]	Ratio ([3]; 72 h, 10 µM)
CC(C)(C)OC(=O)N1CC[C@@H]1C(=O)N[C@H]1CC[C@]2(C)[C@H]3C[C@@H](O)[C@@H]4[C@@H]([C@]5(C)CC[C@H](C(C)(C)O)O5)CC[C@@]4(C)[C@]3(C)CC[C@H]2C1(C)C	27%	47%	100.1	99%	–	–
CC(C)(O)[C@H]1CC[C@@](C)([C@H]2CC[C@]3(C)[C@@H]2[C@H](O)C[C@@H]2[C@@]4(C)CC[C@H](NC(=O)[C@H]5C[C@@H](O)CN5)C(C)(C)[C@@H]4CC[C@]23C)O1	98%	95%	–	98%	–	–
CC(C)(C)OC(=O)N1C[C@H](F)C[C@H]1C(=O)N[C@H]1CC[C@]2(C)[C@H]3C[C@@H](O)[C@@H]4[C@@H]([C@]5(C)CC[C@H](C(C)(C)O)O5)CC[C@@]4(C)[C@]3(C)CC[C@H]2C1(C)C	26%	46%	102.4	114%	–	–
CC(C)(O)[C@H]1CC[C@@](C)([C@H]2CC[C@]3(C)[C@@H]2[C@H](O)C[C@@H]2[C@@]4(C)CC[C@H](NC(=O)[C@@H]5CCC(=O)O5)C(C)(C)[C@@H]4CC[C@]23C)O1	94%	95%	–	104%	–	–
CC(C)(O)[C@H]1CC[C@@](C)([C@H]2CC[C@]3(C)[C@@H]2[C@H](O)C[C@@H]2[C@@]4(C)CC[C@H](NC(=O)[C@H]5CCC(=O)N5)C(C)(C)[C@@H]4CC[C@]23C)O1	87%	93%	–	92%	–	–
CC(C)(C)OC(=O)N1CC(C(=O)N[C@H]2CC[C@]3(C)[C@H]4C[C@@H](O)[C@@H]5[C@@H]([C@]6(C)CC[C@H](C(C)(C)O)O6)CC[C@@]5(C)[C@]4(C)CC[C@H]3C2(C)C)C1	54%	80%	–	91%	–	–
CC(C)(O)[C@H]1CC[C@@](C)([C@H]2CC[C@]3(C)[C@@H]2[C@H](O)C[C@@H]2[C@@]4(C)CC[C@H](NC(=O)[C@@H]5CCNC5)C(C)(C)[C@@H]4CC[C@]23C)O1	49%	67%	–	99%	–	–
CC(C)(O)[C@H]1CC[C@@](C)([C@H]2CC[C@]3(C)[C@@H]2[C@H](O)C[C@@H]2[C@@]4(C)CC[C@H](NC(=O)[C@H]5CCN5)C(C)(C)[C@@H]4CC[C@]23C)O1	68%	86%	–	70%	–	–
CC(C)(C)OC(=O)NCCCCCC(=O)N[C@H]1CC[C@]2(C)[C@H]3C[C@@H](O)[C@@H]4[C@@H]([C@]5(C)CC[C@H](C(C)(C)O)O5)CC[C@@]4(C)[C@]3(C)CC[C@H]2C1(C)C	–	–	–	–	Active	–
CC(C)(O)[C@H]1CC[C@@](C)([C@H]2CC[C@]3(C)[C@@H]2[C@H](O)C[C@@H]2[C@@]4(C)CC[C@H](NC(=O)[C@@H]5CCCN5)C(C)(C)[C@@H]4CC[C@]23C)O1	30%	38%	65.1	100%	Not Active	–
CC(C)(C)OC(=O)N1CCCC[C@H]1C(=O)N[C@H]1CC[C@]2(C)[C@H]3C[C@@H](O)[C@@H]4[C@@H]([C@]5(C)CC[C@H](C(C)(C)O)O5)CC[C@@]4(C)[C@]3(C)CC[C@H]2C1(C)C	26%	61%	66	102%	–	–
CC(C)(C)OC(=O)N1CCOC[C@H]1C(=O)N[C@H]1CC[C@]2(C)[C@H]3C[C@@H](O)[C@@H]4[C@@H]([C@]5(C)CC[C@H](C(C)(C)O)O5)CC[C@@]4(C)[C@]3(C)CC[C@H]2C1(C)C	55%	81%	–	89%	–	–
CC(C)(C)OC(=O)N1CCC[C@@H]1C(=O)N[C@H]1CC[C@]2(C)[C@H]3C[C@@H](O)[C@@H]4[C@@H]([C@]5(C)CC[C@H](C(C)(C)O)O5)CC[C@@]4(C)[C@]3(C)CC[C@H]2C1(C)C	21%	36%	157.7	88%	Active	–
CC1(C(=O)N[C@H]2CC[C@]3(C)[C@H]4C[C@@H](O)[C@@H]5[C@@H]([C@]6(C)CC[C@H](C(C)(C)O)O6)CC[C@@]5(C)[C@]4(C)CC[C@H]3C2(C)C)COC1	50%	59%	–	84%	–	–
CC(C)(O)[C@H]1CC[C@@](C)([C@H]2CC[C@]3(C)[C@@H]2[C@H](O)C[C@@H]2[C@@]4(C)CC[C@H](NC(=O)[C@H]5CCCN5)C(C)(C)[C@@H]4CC[C@]23C)O1	63%	73%	–	109%	–	–
CC(C)(C)OC(=O)N1C[C@H](O)C[C@H]1C(=O)N[C@H]1CC[C@]2(C)[C@H]3C[C@@H](O)[C@@H]4[C@@H]([C@]5(C)CC[C@H](C(C)(C)O)O5)CC[C@@]4(C)[C@]3(C)CC[C@H]2C1(C)C	93%	90%	–	105%	–	–

SMILES	Activity [1]	Activity [2]	Ratio [3]	viability at 10 µM [4]	Activity [5]	Ratio ([3]; 72 h, 10 µM)
CC(C)(C)OC(=O)N1CC[C@@H](C(=O)N[C@H]2CC[C@]3(C)[C@H]4C[C@@H](O)[C@@H]5[C@@H]([C@]6(C)CC[C@H](C(C)(C)O)O6)CC[C@@]5(C)[C@]4(C)CC[C@H]3C2(C)C)C1	31%	54%	76	81%	–	–
CC(C)(O)[C@H]1CC[C@@](C)([C@H]2CC[C@]3(C)[C@@H]2[C@H](O)C[C@@H]2[C@@]4(C)CC[C@H](NC(=O)[C@H]5CCCNC5)C(C)(C)[C@@H]4CC[C@]23C)O1	45%	83%	–	94%	–	–
CC(C)(C)OC(=O)N1CCCC[C@@H]1C(=O)N[C@H]1CC[C@]2(C)[C@H]3C[C@@H](O)[C@@H]4[C@@H]([C@]5(C)CC[C@H](C(C)(C)O)O5)CC[C@@]4(C)[C@]3(C)CC[C@H]2C1(C)C	27%	42%	–	118%	–	–
CC(C)(O)[C@H]1CC[C@@](C)([C@H]2CC[C@]3(C)[C@@H]2[C@H](O)C[C@@H]2[C@@]4(C)CC[C@H](NC(=O)C5CNC5)C(C)(C)[C@@H]4CC[C@]23C)O1	61%	76%	–	97%	–	–
CC(C)(O)[C@H]1CC[C@@](C)([C@H]2CC[C@]3(C)[C@@H]2[C@H](O)C[C@@H]2[C@@]4(C)CC[C@H](NC(=O)[C@@H]5CC(F)(F)CN5)C(C)(C)[C@@H]4CC[C@]23C)O1	62%	78%	–	95%	–	–
CC(C)(O)[C@H]1CC[C@@](C)([C@H]2CC[C@]3(C)[C@@H]2[C@H](O)C[C@@H]2[C@@]4(C)CC[C@H](NC(=O)[C@@H]5C[C@@H](F)CN5)C(C)(C)[C@@H]4CC[C@]23C)O1	66%	78%	–	99%	–	–
C[S+](C)[O-] [DIMETHYL SULFOXIDE]	100%	100%	–	100%	–	–
CC(C)(O)[C@H]1CC[C@@](C)([C@H]2CC[C@]3(C)[C@@H]2[C@H](O)C[C@@H]2[C@@]4(C)CC[C@H](O)C(C)(C)[C@@H]4CC[C@]23C)O1	–	–	–	–	Not Active	–
CC(C)(O)[C@H]1CC[C@@](C)([C@H]2CC[C@]3(C)[C@@H]2[C@H](O)C[C@@H]2[C@@]4(C)CC[C@H](NC(=O)[C@@H]5COCCN5)C(C)(C)[C@@H]4CC[C@]23C)O1	57%	82%	–	89%	–	–
CC(C)(C)OC(=O)N1CC(F)(F)C[C@H]1C(=O)N[C@H]1CC[C@]2(C)[C@H]3C[C@@H](O)[C@@H]4[C@@H]([C@]5(C)CC[C@H](C(C)(C)O)O5)CC[C@@]4(C)[C@]3(C)CC[C@H]2C1(C)C	64%	65%	–	100%	–	–
CC(C)(O)[C@H]1CC[C@@](C)([C@H]2CC[C@]3(C)[C@@H]2[C@H](O)C[C@@H]2[C@@]4(C)CC[C@H](NC(=O)CC5CNC5)C(C)(C)[C@@H]4CC[C@]23C)O1	90%	95%	–	96%	–	–
CC(=O)N1CCC[C@H]1C(=O)N[C@H]1CC[C@]2(C)[C@H]3C[C@@H](O)[C@@H]4[C@@H]([C@]5(C)CC[C@H](C(C)(C)O)O5)CC[C@@]4(C)[C@]3(C)CC[C@H]2C1(C)C	63%	80%	–	97%	–	–
CC(C)(O)[C@H]1CC[C@@](C)([C@H]2CC[C@]3(C)[C@@H]2[C@H](O)C[C@@H]2[C@@]4(C)CC[C@H](NC(=O)[C@@H]5CCC(=O)N5)C(C)(C)[C@@H]4CC[C@]23C)O1	87%	93%	–	100%	–	–
CC(C)(O)[C@H]1CC[C@@](C)([C@H]2CC[C@]3(C)[C@@H]2[C@H](O)C[C@@H]2[C@@]4(C)CC[C@H](NC(=O)[C@H]5CCCCN5)C(C)(C)[C@@H]4CC[C@]23C)O1	28%	56%	–	99%	–	89.1 and 106.3
CC(C)(C)OC(=O)N1CCC[C@H](C(=O)N[C@H]2CC[C@]3(C)[C@H]4C[C@@H](O)[C@@H]5[C@@H]([C@]6(C)CC[C@H](C(C)(C)O)O6)CC[C@@]5(C)[C@]4(C)CC[C@H]3C2(C)C)C1	47%	76%	–	93%	–	–
